Assay results taken from US7109360B1, “16-hydroxyestratrienes as selectively active estrogens” (priority 1999, dated 2006).

Columns and labels:
hERβ [1] = experiment: Relative binding affinity to hERβ, cited from Kuiper et al.; set-up: species or system human; conditions: Table 1; quotient of cited RBA hERβ / hERα
Source text: In this case, it is assumed that ERβ predominates in the rat prostates over ERα, and ERα predominates in rat uteri over ERβ.

[2] = target: T1, estrogen receptor preparations of rat uteri (Rattus norvegicus, UniProt P06211); experiment: Competitive 3H-estradiol binding to estrogen receptor of rat uterus cytosol
T1 construct: The preparation of rat uterus cytosol, as well as the receptor test with the ER-containing cytosol; from tissue; host or cells: rat uterus cytosol
T1 sequence (P06211 1-600): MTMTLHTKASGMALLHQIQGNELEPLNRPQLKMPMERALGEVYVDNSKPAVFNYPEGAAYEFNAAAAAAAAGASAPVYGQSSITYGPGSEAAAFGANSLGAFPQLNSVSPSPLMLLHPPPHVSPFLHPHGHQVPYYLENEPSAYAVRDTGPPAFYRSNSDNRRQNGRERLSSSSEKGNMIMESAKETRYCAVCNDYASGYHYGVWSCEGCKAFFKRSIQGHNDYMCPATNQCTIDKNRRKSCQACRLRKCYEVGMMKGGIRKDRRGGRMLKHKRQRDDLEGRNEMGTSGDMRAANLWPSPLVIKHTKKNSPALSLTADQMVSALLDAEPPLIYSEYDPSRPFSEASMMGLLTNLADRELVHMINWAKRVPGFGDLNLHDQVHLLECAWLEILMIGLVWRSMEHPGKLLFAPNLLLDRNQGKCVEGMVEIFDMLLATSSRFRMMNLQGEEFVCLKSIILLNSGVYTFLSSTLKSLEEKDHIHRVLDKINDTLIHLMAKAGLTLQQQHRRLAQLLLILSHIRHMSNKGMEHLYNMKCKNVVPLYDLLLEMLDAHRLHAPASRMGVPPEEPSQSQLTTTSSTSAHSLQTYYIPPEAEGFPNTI

[3] = system: estrogen receptor preparations of rat prostates; experiment: Competitive 3H-estradiol binding to estrogen receptor of rat prostate cytosol; conditions: for prost. ER/uterus ER: ratio RBA prostate-ER / RBA uterus-ER
[4] = target: T2, human estrogen receptor α (Homo sapiens, UniProt P03372); experiment: Binding to human estrogen receptor α produced by Baculovirus/SF-9 expression system; conditions: Table 2; human ERα from Baculovirus/SF-9, estradiol = 100
T2 construct: made in house; host or cells: Baculovirus/SF-9
T2 sequence (P03372 1-595): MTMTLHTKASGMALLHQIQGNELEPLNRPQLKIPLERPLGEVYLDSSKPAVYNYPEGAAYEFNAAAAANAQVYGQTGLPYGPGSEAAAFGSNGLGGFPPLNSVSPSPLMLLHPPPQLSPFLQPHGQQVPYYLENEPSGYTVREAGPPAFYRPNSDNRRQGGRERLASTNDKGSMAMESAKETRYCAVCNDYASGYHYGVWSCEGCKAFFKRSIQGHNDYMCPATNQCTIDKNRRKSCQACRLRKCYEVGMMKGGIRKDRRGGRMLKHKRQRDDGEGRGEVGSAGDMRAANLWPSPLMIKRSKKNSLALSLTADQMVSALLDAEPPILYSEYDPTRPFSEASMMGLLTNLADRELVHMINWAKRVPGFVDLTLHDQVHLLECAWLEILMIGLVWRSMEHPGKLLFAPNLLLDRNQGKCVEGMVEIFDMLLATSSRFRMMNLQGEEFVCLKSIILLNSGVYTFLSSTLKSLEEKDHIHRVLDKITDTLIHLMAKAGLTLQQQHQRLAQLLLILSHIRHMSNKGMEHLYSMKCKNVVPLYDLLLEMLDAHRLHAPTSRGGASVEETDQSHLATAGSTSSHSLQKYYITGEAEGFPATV

[5] = target: T3, human estrogen receptor β (Homo sapiens, UniProt Q92731); experiment: Binding to human estrogen receptor β produced by Baculovirus/SF-9 expression system; conditions: for hERβ RBA / ERβ/ERα: Table 2; for hERβ RBA: human ERβ from Baculovirus/SF-9, estradiol = 100; for ERβ/ERα: quotient RBA ERβ / RBA ERα
T3 construct: made in house; host or cells: Baculovirus/SF-9

hERβ [6] = conditions: Table 1; estradiol = 100; cited from Kuiper et al. (1996); cited from earlier work
[7] = system: trabecular bone density in ovariectomized female rats; experiment: Bone studies: bone density of proximal tibia (pQCT) in ovariectomized rats; assay type: in vivo, rat; conditions: s.c. once daily for 28 days, relative to bone mass loss of untreated ovariectomized vs sham-operated animals
Experimental: (§1) Three-month-old female rats are ovariectomized and treated once daily with the test compound immediately after the operation for 28 days. The administration is carried out subcutaneously in arachis oil/ethanol. The animals are sacrificed on the day after the last administration, and tibia as well as uteri are removed. The uteri are weighed, fixed and worked up for histological studies. The determination of bone density is carried out ex vivo on prepared long bones by means of pQCT (quantitative computer tomography). The measurements are made at a distance of 4–6 mm from the ball of the joint of the proximal tibia.
The ovariectomy reduces the density of the trabecular bone in the measured area by about 400 mg of Ca^2+/cm^3 to about 300 mg of Ca^2+/cm^3. By treatment with a compound of general formula I according to this invention, the degradation of the bone density is prevented or inhibited. The bone density in the proximal tibia was measured.
(§2) Estra-1,3,5(10)-triene-3,16α-diol reflects this in vivo in the greatly different amounts, which produce a 50% bone protection [3 μg/animal] or a 50% uterus stimulation [30 μg/animal], relative to the bone mass loss, which can be measured in ovariectomized, untreated female rats 28 days after the ovariectomy unlike in intact animals that are subjected to sham operations.

[8] = system: uterus of ovariectomized female rats; experiment: Bone studies: uterus stimulation (uterus weight) in ovariectomized rats; assay type: in vivo, rat; conditions: s.c. once daily for 28 days
Experimental: as §1, §2

[9] = Table 1, 3H-estradiol as ligand, estradiol = 100

T3 sequence (Q92731 whole entry): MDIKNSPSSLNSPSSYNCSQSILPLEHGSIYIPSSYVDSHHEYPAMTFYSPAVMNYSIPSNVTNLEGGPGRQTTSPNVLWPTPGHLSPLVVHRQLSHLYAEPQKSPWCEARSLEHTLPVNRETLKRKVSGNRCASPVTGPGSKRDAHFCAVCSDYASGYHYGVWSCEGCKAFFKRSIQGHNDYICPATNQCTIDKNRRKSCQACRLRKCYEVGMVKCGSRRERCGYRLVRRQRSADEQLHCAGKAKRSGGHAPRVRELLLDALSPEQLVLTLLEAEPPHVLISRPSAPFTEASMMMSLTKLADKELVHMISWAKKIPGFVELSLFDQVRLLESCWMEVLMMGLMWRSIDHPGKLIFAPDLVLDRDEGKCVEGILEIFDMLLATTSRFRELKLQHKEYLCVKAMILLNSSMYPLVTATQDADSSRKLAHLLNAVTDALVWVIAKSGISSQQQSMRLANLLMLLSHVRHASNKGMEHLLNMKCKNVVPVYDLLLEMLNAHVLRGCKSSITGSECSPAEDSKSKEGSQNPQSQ

Row | SMILES | Rat uterus ER (RBA) ([2]; Table 2, estradiol = 100) | Rat prost. ER (RBA) [3, 9] | Rat prost. ER (RBA) ([3]; Table 2, estradiol = 100) | prost. ER/uterus ER ([3]; Table 2) | hERα RBA [4] | hERβ RBA [5] | ERβ/ERα [5] | also measured
1 | C[C@]12CC[C@H]3[C@@H](CC=C4C[C@@H](O)CC[C@@]43C)[C@@H]1CC[C@@H]2O [5-Androstenediol] | 0.1 | 5 | 5 | 50 | 1.7 | 10 | 6 | ERβ/ERα (hERβ [1]): 3; Rat uterus ER (RBA) [2, 9]: 0.1; prost. ER/uterus ER ([3]; Table 1): 50; hERβ RBA (hERβ [6]): 17
2 | C[C@]12CC[C@@H]3c4ccc(O)cc4CC[C@H]3[C@@H]1C[C@@H](O)C2 [16α-Estradiol, estra-1,3,5(10)-triene-3,16α-diol] |  |  |  |  |  |  |  | Rat uterus ER (RBA) ([2]; Table 3): 9; Rat prost. ER (RBA) ([3]; Table 3): 50; Receptor binding ERβ (RBA)/ERα (RBA) ([5]; Table 3): 6; 50% bone protection [7]: 3 μg/animal; 50% uterus stimulation [8]: 30 μg/animal
3 | C[C@]12CC[C@@H]3c4ccc(O)cc4CC[C@H]3[C@@H]1C[C@@H](O)C2=O [16α-hydroxyestrone] |  |  |  |  |  |  |  | RBA value on rat prostate estrogen receptor relative to RBA value on rat uterus estrogen receptor [3]: five times better; binding to human estrogen receptor β relative to human estrogen receptor α [5]: three times better
4 | C[C@]12CC[C@@H]3c4ccc(O)cc4CC[C@H]3[C@@H]1CC[C@H]2O [17α-Estradiol] |  | 1.3 |  |  |  |  |  | 
5 | C#C[C@@]1(O)C[C@@H]2CC[C@@H]3[C@H](CC[C@@]4(C)[C@H]3CC[C@@]4(O)C#C)[C@@]2(C)C1 [Anordiol] | 6.6 |  | <0.01 | <0.01 | 15 | 0.2 | 0.01 | 
6 | O=c1oc2cc(O)ccc2c2oc3cc(O)ccc3c12 [Coumestrol] |  |  |  |  |  | 100 |  | 
7 | C[C@]12CC[C@@H]3c4ccc(O)cc4CC[C@H]3[C@@]13CC[C@]2(O)[C@H](O)C3 [Cyclotriol] | 50 |  | 17 | 0.3 | 36 | 10 | 0.3 | 
8 | C[C@]12CC[C@@H]3c4ccc(O)cc4CC[C@H]3[C@@H]1C[C@@H](O)[C@@H]2O [Estriol] |  |  |  |  |  |  |  | hERβ RBA (hERβ [6]): 21
9 | O=c1c(-c2ccc(O)cc2)coc2cc(O)cc(O)c12 [Genisteine] |  | 10 | 10 |  |  |  |  | 
10 | O=C(c1ccc(OCCN2CCCCC2)cc1)c1c(-c2ccc(O)cc2)sc2cc(O)ccc12 [Raloxifene] |  |  | 1.5 |  |  | 9 |  | 
